Source: publication PMC12423841 (ACS Omega, 2025)

Legend:
[1] = tested on: VSV pseudotyped with the SARS-CoV-2 Wuhan-Hu-1 S; assay: organism not typed; type: cell-based; settings: for antiviral activity (reduction of viral entry) versus cellular toxicity: VSVΔG-SWh in VeroE6 cells, various concentrations; for EC50: Vero C1008, read-out: EC50 (concentration reducing infection by VSV pseudotyped with the SARS-CoV-2 Wuhan-Hu-1 S by 50%)
in vitro = settings: African green monkey
[2] = tested on: SARS-CoV-2 in A549-ACE2 cells; type: cell-based; settings: 24 h, compounds 20 μM, remdesivir 30 μM
[3] = tested on: VSV pseudotyped with SARS-CoV-2 Delta Spike; type: cell-based; settings: dose response
[4] = tested on: VSV pseudotyped with SARS-CoV-1 Spike; type: cell-based
[5] = tested on: VSV pseudotyped with SARS-CoV-2 Omicron BA.1 Spike; type: cell-based; settings: dose response
[6] = tested on: SARS-CoV-2 in VeroE6-TMPRSS2 cells; type: cell-based; settings: 24 h, compounds 20 μM, remdesivir 30 μM

SMILES	antiviral activity (reduction of viral entry) versus cellular toxicity [1]	EC50 [1] [µM]	CC50 (in vitro) [µM]	virus production after SARS-CoV-2 infection [2]	inhibition of infection by VSV pseudotyped with SARS-CoV-2 Wuhan Spike ([1]; dose response)	inhibition of infection by VSV pseudotyped with SARS-CoV-2 Delta Spike [3]	inhibition of infection by VSV pseudotyped with SARS-CoV-1 Spike [4]	inhibition of infection by VSV pseudotyped with SARS-CoV-2 Omicron BA.1 Spike [5]	virus production after SARS-CoV-2 infection [6]
C=C1CC[C@H](O)C/C1=C/C=C1\CCC[C@]2(C)[C@@H]([C@H](C)CCCC(C)(C)O)CC[C@@H]12 [calcifediol]	antiviral activity could not be separated from toxicity	6.13 ± 3.52	16.8 ± 0.5	–	–	–	–	–	–
C=C1CC[C@H](O)C/C1=C/C=C1\CCC[C@]2(C)[C@@H]([C@H](C)CCCC(C)C)CC[C@@H]12 [cholecalciferol]	showed antiviral activity in the absence of toxicity	14.8 ± 4.11	83.7 ± 6.12	–	–	–	–	–	–
CC(C)c1c(CN(C)C(C)Cc2ccccc2)n(C)n(-c2ccccc2)c1=O (stereo not shown) [famprofazone]	showed antiviral activity in the absence of toxicity	7.64 ± 4.55	79 ± 2.75	statistically significant reduction of virus production	–	–	–	–	–
CCCCCCCCc1ccc(CCC(N)(CO)CO)cc1 [fingolimod]	showed antiviral activity in the absence of toxicity	7.12 ± 2.25	20.4 ± 19.6	statistically significant reduction of virus production	dose-dependent reduction	dose-dependent reduction	dose-dependent reduction	dose-dependent reduction	significant reduction
CC[N+](C)(CC)CCOC(=O)C(O)(c1ccccc1)C1CCCCC1 (stereo not shown) [oxyphenomium]	could not be observed	–	–	–	–	–	–	–	–
CCC(CC)COC(=O)[C@H](C)N[P@](=O)(OC[C@H]1O[C@@](C#N)(c2ccc3c(N)ncnn23)[C@H](O)[C@@H]1O)Oc1ccccc1 [remdesivir]	–	–	–	reduced viral replication significantly	–	–	–	–	reduced viral replication significantly
